# From article PMC11087509, “Multimodal binding and inhibition of bacterial ribosomes by the antimicrobial peptides Api137 and Api88” (Nature Communications, 2024)
# Entries after “also recorded” stand apart in the source; their conditions may differ. Where a SMILES comes first, the peptide text is derived from it. The star is where a group is joined. Orn(α-tetramethylguanidino) = CN(C)C(=N[C@@H](CCCN)C(=O)*)N(C)C
# Tests used:
# [1] = biological target: T1, purified 70S ribosome (Escherichia coli, UniProt P0A7M6+P0ADZ0+P60723+P61175); test: Fluorescence polarization competition with cf-Api88 on purified 70S ribosome; assay type: binding, E. coli; conditions: competition with cf-Api88, pure 70S ribosome; 28 °C
# T1 construct: obtain highly pure E. coli 70S ribosomes; made in house; host or cells: E. coli BW25113 (native ribosomes isolated, not recombinant)
# Protocol: (§1) E. coli BW25113 were grown in LB medium and harvested by centrifugation (5000× g, 15 min, 4 °C) at an OD600 of 3-4. Cell pellets were washed in ribosome preparation buffer (20 mmol/L HEPES-KOH, 6 mmol/L MgCl2, 30 mmol/L NH4Cl, pH 7.6, 4 °C), centrifuged (4100× g, 30 min, 4 °C), and suspended in ribosome preparation buffer ([…]) containing freshly added ß-mercaptoethanol (4 mmol/L). Lysozyme was added to the resuspended cells and incubated for 30 min on ice. Cells were disrupted in six cycles using a FastPrep-24^TM 5 G instrument (MP Biomedicals, Eschwege, Germany) with the BigPrep 50 mL setting (40 s, 4.0 m/s) and one-minute incubation on ice between cycles. […]
# (§2) Ribosomes were purified by anion exchange chromatography using an Äkta Pure System (GE Healthcare, Freiburg, Germany) and a CIM®QA column (8 mL, 2 µm channels; Sartorius Stedim Biotech GmbH, Göttingen, Germany). […] The ribosome concentration was estimated by recording the absorbance at 260 nm (considering that 15 AU corresponds to a ribosome concentration of 1 g/L). […]
# Inhibition constants (Ki) were determined for the pure 70S ribosome using cf-labeled and unlabeled peptides in the ribosome preparation buffer. […] Fluorescence polarization was measured on a […]^TM microplate reader in the top reading position (λexc = 485 nm, λem = 535 nm). […] The Ki values were calculated as described by Mathias and Jung[39].
# [2] = biological target: recombinant TF; conditions: fluorescence polarization; cited from earlier work
# Source text: Binding sites two and three are close to uL23 and uL29, which is also supported by Api88(Y7B) cross-links. These ribosomal proteins are located adjacent to the PET exit and are binding hubs for the molecular chaperone trigger factor (TF)[34] and the signal recognition particle (SRP), a universally conserved and essential cellular machinery that directs proteins destined for membrane integration to the plasma membrane[35],[36]. This co-translational targeting is initiated by a hydrophobic signal sequence in the nascent protein chain recognized by SRP as it exits the PET. It is appealing to hypo ...
# [3] = biological target: DnaK; conditions: read-out: Kd (DnaK); peer review response; cited from earlier work
# Source text: We now introduce trigger factor in line 446 as “…molecular chaperone…” In addition, we hypothesize that Api88 binds to the ribosome within the contact area of TF, which interacts with uL23 and uL29, two proteins we report here as cross-linked to Api88.
# [4] = biological target: T2, 50S subunit (Escherichia coli, UniProt P0A7M6+P0ADZ0+P60723+P61175); test: Fluorescence polarization binding, 50S subunit; design: species or system E. coli
# T2 construct: Ribosomes were isolated from the E. coli strain MRE600; made in house; native subunits isolated in house
# Protocol: Several hundred grams of log-phase cells were commercially produced and purchased. Cells were washed in buffer A (20 mmol/L HEPES (pH 7.6), 6 mmol/L MgAc2, 30 mmol/L AcOK, 4 mmol/L ß-mercaptoethanol) and lysed in an M-110L microfluidizer (Microfluidics) at 17,000 psi and 4 °C. Cell debris was removed by low-speed centrifugation (15,000× g, 10 min, 4 °C) to obtain S30 lysate. Crude ribosomes, mostly containing 70S ribosomes, were pelleted by ultracentrifugation (40,000× g, 17 h, 4 °C) and resuspended in buffer A. The 70S ribosomes were separated from 30S and 50S subunits by zonal ultracentrifugation (Beckman Ti-15; 6–40% sucrose gradient in buffer A, 44,000× g, 16 h, 4 °C). The 70S-containing fractions were collected, and the ribosomes were sedimented by ultracentrifugation (40,000× g, 17 h, 4 °C). Since these 70S ribosomes still contained tRNAs and mRNA, they were resuspended in buffer B (20 mmol/L HEPES (pH 7.6), 1 mmol/L MgAc2, 0.2 mol/L NH4Ac, 4 mmol/L ß-mercaptoethanol), which allows for dissociation into 30S and 50S subunits, and subjected to a second zonal centrifugation (Beckman Ti-15, 44,000× g, 16 h, 4 °C), but this time in a 6–40% sucrose gradient prepared in buffer B. Fractions containing 30S and 50S subunits were collected, sedimented by ultracentrifugation (40,000× g, 17 h, 4 °C), resuspended in buffer A, aliquoted, shock-frozen in liquid nitrogen, and stored at −80 °C.
# Dissociation constants (Kd) were determined using purified 70S ribosome, 50S or 30S subunit and cf-labeled peptides in ribosome preparation buffer. Briefly, black 384-well plates (flat bottom, 781209, Greiner Bio-One GmbH) were blocked with casein (0.5%, w/v) in PBS containing 0.05% (v/v) Tween 20 at 4 °C overnight and washed three times with phosphate buffer. A 2-fold dilution series (22 steps) of pure 70S ribosome, 50S or 30S subunit (10 μL per well) in ribosome preparation buffer was prepared in a black 384-well plate. The cf-labeled peptide was dissolved in ribosome preparation buffer (10 μL, 40 nmol/L), added to each well, centrifuged (500 x g, 2 min), and incubated at 28 ± 1 °C for 90 min. Fluorescence polarization was measured on a […]^TM microplate reader (Beckman Coulter, Krefeld, Germany) in the top reading position (λexc = 485 nm, λem = 535 nm). Data were fitted to a nonlinear dose-response logistic transition equation [y = y0 + a/(1 + (x/x0)b)] using the Levenberg-Marquardt algorithm, with Kd represented by the x0 coefficients (GraphPad Prism for Windows v. 10.1.2, San Diego, CA, USA).
# [5] = biological target: T1, purified 70S ribosome; test: Fluorescence polarization binding, purified 70S ribosome; design: species or system E. coli
# Protocol: as §1, §2
# Dissociation constants (Kd) were determined using purified 70S ribosome, 50S or 30S subunit and cf-labeled peptides in ribosome preparation buffer. […] Fluorescence polarization was measured on a […]^TM microplate reader (Beckman Coulter, Krefeld, Germany) in the top reading position (λexc = 485 nm, λem = 535 nm). […]
molecule,measurement,setting,value
CC[C@H]1OC(=O)[C@H](C)[C@@H](O[C@H]2C[C@@](C)(OC)[C@@H](O)[C@H](C)O2)[C@H](C)[C@@H](O[C@@H]2O[C@H](C)C[C@H](N(C)C)[C@H]2O)[C@](C)(O)C[C@@H](C)C(=O)[C@H](C)[C@@H](O)[C@]1(C)O [erythromycin],displacement of cf-Api88 / decrease in fluorescence polarization,[1],significantly competing with the binding of cf-Api88; also recorded: reduced the fluorescence polarization to a much lesser extent
"GNNRPVYIPQPRPPHPRL [apidaecin 1b, reference compound]",Kd,[2],> 100000 nM
same,Kd,[3],~5000 nM
CC[C@H](C)[C@H](NC(=O)[C@H](Cc1ccc(O)cc1)NC(=O)[C@@H](NC(=O)[C@@H]1CCCN1C(=O)[C@H](CCCNC(=N)N)NC(=O)[C@H](CC(N)=O)NC(=O)[C@H](CC(N)=O)NC(=O)[C@H](CCCN)N=C(N(C)C)N(C)C)C(C)C)C(=O)N1CCC[C@H]1C(=O)N[C@@H](CCCNC(=N)N)C(=O)N1CCC[C@H]1C(=O)N[C@@H](CCCNC(=N)N)C(=O)N1CCC[C@H]1C(=O)N1CCC[C@H]1C(=O)N[C@@H](Cc1c[nH]cn1)C(=O)N1CCC[C@H]1C(=O)N[C@@H](CCCNC(=N)N)C(=O)N[C@@H](CC(C)C)C(N)=O [Api88] ({Orn(α-tetramethylguanidino)}-NNRPVYIPRPRPPHPRL-NH2),Kd,"[4]; apparent Kd, cf-labeled PrAMP (10 μL, 40 nmol/L), ribosome preparation buffer pH 7.6, 28 °C, 90 min, mean of triplicates",580 ± 50 nM
same,Kd for 50S subunit lower than for 70S ribosome,"[4]; ratio 70S / 50S, cf-labeled",threefold
same,Kd,"[5]; apparent Kd, cf-labeled PrAMP (10 μL, 40 nmol/L), ribosome preparation buffer (20 mmol/L HEPES-KOH, 6 mmol/L MgCl2, 30 mmol/L NH4Cl, pH 7.6), 28 °C, 90 min, mean of triplicates, read-out: Kd 70S ribosome pure",1820 ± 80 nM
same,higher affinity of Api88 than Api137,[5]; purified 70S ribosomes and 50S subunits,2-3 fold
